Laboratory results as given in publication PMC3747139 (PLoS ONE, 2013).
Read-outs that look alike come from different tables or passages of the source. Marks after values point to notes of the source that are not given here.

Columns and labels:
[1] = test system: HQF DNA [d(T2AG3)4]; test: SYBR Green melting study with HQF DNA; type: binding, human; details: melting temperature of HQF DNA (5 µM) in presence of 1 µM ligand
Procedure: When quadruplex DNA melts to form ssDNA structure, SG fluorescence intensity gradually reduces as SG has no binding to ssDNA. Each time, 5 µM of HQF DNA [d(T2AG3)4)], 5 µM of dsDNA (prepared by mixing equal concentration of poly-dA-dT and poly-dT-dA), 5 µM ssDNA ( poly dT alone) and 1 µM of each ligand was incubated at 4°C for 16 h, and used for melting studies. […] Affinity, stoichiometry and thermodynamic parameters for quadruplex-ligand complex were studied with 60 µM of ligand and 10 µM of HQF DNA using Microcal VP-ITC (Northampton, MA, USA). Ligand addition to G-quadruplex DNA was made every 180 seconds. Titration experiments were performed thrice and blank correction was made each time to minimize error.

[2] = test system: MCF-7; test: Cell count assay (trypan blue); type: cell-based, human; details: for Number of viable cells after 24 h of ligand treatment: MCF-7, 24 h; for Number of viable cells after 48 h of ligand treatment: MCF-7, 48 h;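 as to Number of viable cells after 48 h of ligand treatment: each ligand tested at its own IC50 concentration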
Procedure: (§1) Normal and tumor cell lines were seeded at 20000–40000 cells/cm^2 with 0.2 mL/cm^2 media and incubated for 48 h at 37°C, 6% CO2, 95% relative humidity. […] After 24 h and 48 h of incubation, cells were washed with 300 µl PBS or 0.02% EDTA, trypsinized, followed by harvesting at 37°C. 200 µl cell suspension was transferred into 1.5 ml microcentrifuge tube. To the cell suspension, 300 µl PBS followed by 500 µl of 0.4% trypan blue solution was added. To get the homogenised solution, the microcentrifuge tube was gently tapped for 5 min, 20 µl of cell suspension was loaded in to a chamber of the haemocytometer.

[3] = test system: B16F10; test: Cell count assay (trypan blue); type: cell-based, human; details: for Number of viable cells after 24 h of ligand treatment: B16F10, 24 h; for Number of viable cells after 48 h of ligand treatment: B16F10, 48 h
Procedure: as §1

[4] = test system: A549; test: Cell count assay (trypan blue); type: cell-based, human; details: for Number of viable cells after 24 h of ligand treatment: A549, 24 h; for Number of viable cells after 48 h of ligand treatment: A549, 48 h;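 as to Number of viable cells after 24 h of ligand treatment: each ligand tested at its own IC50 concentration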
Procedure: as §1

[5] = Cell count assay (trypan blue); type: cell-based; parameters: concentration or dose not given beside the values; details: human; for viability at 24 h: read-out: Number of viable cells after 24 h of ligand treatment; for viability at 48 h: read-out: Number of viable cells after 48 h of ligand treatment
Procedure: as §1

[6] = CRL-2115 cells (normal cell line), CRL-2115, 24 h
[7] = CRL-2115 cells (normal cell line), CRL-2115, 48 h
[8] = CRL-2120 cells (normal cell line), CRL-2120, 24 h
[9] = CRL-2120 cells (normal cell line), CRL-2120, 48 h
[10] = NCM-460 cells (normal cell line), NCM-460, 24 h
[11] = NCM-460 cells (normal cell line), NCM-460, 48 h

Compound	Tm [1]	Number of viable cells after 24 h of ligand treatment [2]	Number of viable cells after 48 h of ligand treatment [2]	Number of viable cells after 24 h of ligand treatment [3]	Number of viable cells after 48 h of ligand treatment [3]	Number of viable cells after 24 h of ligand treatment [4]	Number of viable cells after 48 h of ligand treatment [4]	viability at 24 h [5, 6] [%]	viability at 48 h [5, 7] [%]	viability at 24 h [5, 8] [%]	viability at 48 h [5, 9] [%]	viability at 24 h [5, 10] [%]	viability at 48 h [5, 11] [%]
c1ccc(Cn2nnc(-c3ccccc3)c2-c2ccccc2)cc1 [Ligand L4, 1-Benzyl-4,5-diphenyl-1H-1,2,3-triazole]	32 ^o C	++/++ (Viable cells in the range of 50%–60%)	++/++ (Viable cells in the range of 50%–60%)	++/++ (Viable cells in the range of 50%–60%)	++/++ (Viable cells in the range of 50%–60%)	+ (Viable cells in the range of 80%–90%)	++ (Viable cells in the range of 50%–60%)	80 to 90	50 to 60	80 to 90	80 to 90	80 to 90	50 to 60
CCCCc1nnn(Cc2ccccc2)c1/C=C/c1ccccc1 [Ligand L5, (E)-1-Benzyl-4-butyl-5-styryl-1H-1,2,3-triazole]	33 ^o C	++/++ (Viable cells in the range of 50%–60%)	++/++ (Viable cells in the range of 50%–60%)	++/++ (Viable cells in the range of 50%–60%)	++/++ (Viable cells in the range of 50%–60%)	+ (Viable cells in the range of 80%–90%)	++ (Viable cells in the range of 50%–60%)	80 to 90	50 to 60	80 to 90	50 to 60	80 to 90	50 to 60
CCCCc1nnn(Cc2ccccc2)c1-c1cccc(O)c1 [Ligand L6, 3-(3-Benzyl-5-butyl-3H-1,2,3-triazol-4-yl)phenol]	33 ^o C	+ (Viable cells in the range of 80%–90%)	++ (Viable cells in the range of 50%–60%)	+ (Viable cells in the range of 80%–90%)	++ (Viable cells in the range of 50%–60%)	++/++ (Viable cells in the range of 50%–60%)	++/++ (Viable cells in the range of 50%–60%)	80 to 90	50 to 60	80 to 90	50 to 60	50 to 60	50 to 60
c1ccc(-c2nnn(CC3CCCCO3)c2-c2ccccc2)cc1 (stereo not shown) [Ligand L7, 4,5-Diphenyl-1-((tetrahydro-2H-pyran-2-yl)methyl)-1H-1,2,3-triazole]	29 ^o C	+ (Viable cells in the range of 80%–90%)	++ (Viable cells in the range of 50%–60%)	+ (Viable cells in the range of 80%–90%)	++ (Viable cells in the range of 50%–60%)	+/+ (Viable cells in the range of 80%–90%)	+/+ (Viable cells in the range of 80%–90%)	80 to 90	80 to 90	80 to 90	50 to 60	80 to 90	50 to 60
Oc1cccc(-c2c(-c3ccccc3)nnn2CC2CCCCO2)c1 (stereo not shown) [Ligand L8]	27 ^o C	–	–	–	–	–	–	–	–	–	–	–	–
CCOC(=O)c1nnn(Cc2ccccc2)c1-c1ccccc1 [Ligand L9, Ethyl 1-benzyl-5-phenyl-1H-1,2,3-triazole-4-carboxylate]	29 ^o C	+/+ (Viable cells in the range of 80%–90%)	+/+ (Viable cells in the range of 80%–90%)	+ (Viable cells in the range of 80%–90%)	++ (Viable cells in the range of 50%–60%)	+ (Viable cells in the range of 80%–90%)	++ (Viable cells in the range of 50%–60%)	80 to 90	50 to 60	80 to 90	80 to 90	80 to 90	80 to 90
CCOC(=O)c1nnn(Cc2ccccc2)c1/C=C/c1ccccc1 [Ligand L10, (E)-Ethyl 1-benzyl-5-styryl-1H-1,2,3-triazole-4-carboxylate]	33 ^o C	+ (Viable cells in the range of 80%–90%)	++ (Viable cells in the range of 50%–60%)	+ (Viable cells in the range of 80%–90%)	++ (Viable cells in the range of 50%–60%)	+/+ (Viable cells in the range of 80%–90%)	+/+ (Viable cells in the range of 80%–90%)	80 to 90	80 to 90	80 to 90	80 to 90	80 to 90	50 to 60
CCOC(=O)c1nnn(Cc2ccccc2)c1-c1cccc(O)c1 [Ligand L11, Ethyl 1-benzyl-5-(3-hydroxyphenyl)-1H-1,2,3-triazole-4-carboxylate]	28 ^o C	+ (Viable cells in the range of 80%–90%)	++ (Viable cells in the range of 50%–60%)	+ (Viable cells in the range of 80%–90%)	++ (Viable cells in the range of 50%–60%)	+ (Viable cells in the range of 80%–90%)	++ (Viable cells in the range of 50%–60%)	80 to 90	80 to 90	80 to 90	80 to 90	80 to 90	80 to 90
C(=C\c1c(-c2ccccc2)nnn1CC1CCCCO1)/c1ccccc1 (stereo not shown) [Ligand L12, (E)-4-Phenyl-5-styryl-1-((tetrahydro-2H-pyran-2-yl)methyl)-1H-1,2,3-triazole]	31 ^o C	+ (Viable cells in the range of 80%–90%)	++ (Viable cells in the range of 50%–60%)	+ (Viable cells in the range of 80%–90%)	++ (Viable cells in the range of 50%–60%)	+/+ (Viable cells in the range of 80%–90%)	+/+ (Viable cells in the range of 80%–90%)	80 to 90	80 to 90	80 to 90	80 to 90	80 to 90	50 to 60
Oc1cccc(-c2c(-c3ccccc3)nnn2CC2CCCCO2)c1 (stereo not shown) [Ligand L13, 3-(5-Phenyl-3-((tetrahydro-2H-pyran-2-yl)methyl)-3H-1,2,3-triazol-4-yl)phenol]	33 ^o C	+/+ (Viable cells in the range of 80%–90%)	+/+ (Viable cells in the range of 80%–90%)	+ (Viable cells in the range of 80%–90%)	++ (Viable cells in the range of 50%–60%)	+/+ (Viable cells in the range of 80%–90%)	+/+ (Viable cells in the range of 80%–90%)	80 to 90	80 to 90	80 to 90	80 to 90	80 to 90	80 to 90
